US20140343049A1, “DIHYDROFURAN DERIVATIVES AS INSECTICIDAL COMPOUNDS” (SYNGENTA PARTICIPATIONS AG, priority 2011, published 2014)

Assays:
Format in all cases: in vivo
[1] = test system: Plutella xylostella (diamond back moth); test: Plutella xylostella L2 larvae test on artificial diet; conditions: 144 h, 200 ppm (concentration in well 18 ppm), 6 days, larval mortality and growth regulation
Description: 24-well microtiter plate (MTP) with artificial diet was treated with test solutions at an application rate of 200 ppm (concentration in well 18 ppm) by pipetting. After drying, the MTPs were infested with L2 larvae (7-12 per well). After an incubation period of 6 days, samples were checked for larval mortality and growth regulation.

[2] = test system: Diabrotica balteata (corn root worm); test: Diabrotica balteata L2 larvae test on artificial diet; conditions: 120 h, 200 ppm (concentration in well 18 ppm), 5 days, larval mortality and growth regulation
Procedure, shortened: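 Artificial diet treated with test solution at 200 ppm or 12.5 ppm application rate (in-well concentration stated as 18 ppm), dried, then infested with 6-10 L2 larvae per well. Larval mortality and growth regulation scored after 5 days.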

[3] = test system: Myzus persicae (green peach aphid); test: Myzus persicae (sachet) mixed population test; conditions: 120 h, sucrose solution, application rate 12.5 ppm, mortality 5 days after infestation
Text: Test compounds were applied by pipette into 24 well plates and mixed with Sucrose solution. The plates were closed with a stretched Parafilm. A plastic stencil with 24 holes is placed onto the plate and infested pea seedlings were placed directly on the Parafilm. The infested plate is closed with a gel blotting paper and another plastic stencil and then turned upside down. 5 days after infestation the samples were checked on mortality. Application rate: 12.5 ppm.

[4] = test system: Spodoptera littoralis (Egyptian cotton leafworm); test: Spodoptera littoralis cotton leaf disc spray test; conditions: foliar, 72 h, cotton leaf discs sprayed at 200 ppm, 5 L1 larvae, mortality, feeding behavior, growth regulation 3 days after treatment
Text: Cotton leaf discs were placed on agar in a 24-well microtiter plate and sprayed with test solutions at an application rate of 200 ppm. After drying, the leaf discs were infested with 5 L1 larvae. The samples were checked for mortality, feeding behavior, and growth regulation 3 days after treatment (DAT).

[5] = test system: Heliothis virescens (tobacco budworm); test: Heliothis virescens egg test on artificial diet; conditions: 96 h, 200 ppm (concentration in well 18 ppm), eggs 0-24 h old, 4 days, egg mortality, larval mortality, growth regulation
Description: Eggs (0-24 h old) were placed in 24-well microtiter plate on artificial diet and treated with test solutions at an application rate of 200 ppm (concentration in well 18 ppm) by pipetting. After an incubation period of 4 days, samples were checked for egg mortality, larval mortality, and growth regulation.

[6] = test system: Tetranychus urticae (two-spotted spider mite); test: Tetranychus urticae bean leaf disc spray test; conditions: foliar, 192 h, bean leaf discs sprayed at 200 ppm, mixed ages, egg, larval and adult mortality 8 days later
Text: Bean leaf discs on agar in 24-well microtiter plates were sprayed with test solutions at an application rate of 200 ppm. After drying, the leaf discs are infested with mite populations of mixed ages. 8 days later, discs are checked for egg mortality, larval mortality, and adult mortality. […]

[7] = test system: Thrips tabaci (onion thrips); test: Thrips tabaci sunflower leaf disc spray test; conditions: foliar, 168 h, sunflower leaf discs sprayed at 200 ppm, mixed ages, mortality after 7 days
Description: Sunflower leaf discs were placed on agar in a 24-well microtiter plate and sprayed with test solutions at an application rate of 200 ppm. […] After drying, the leaf discs were infested with a thrip population of mixed ages. After an incubation period of 7 days, samples were checked for mortality.

Cc1cc(C2=CC(c3cc(Cl)cc(Cl)c3)(C(F)(F)F)OC2)ccc1C(=O)NCc1ccc(S(C)(=O)=O)cc1 (stereo not drawn) [Compound A25]
≥ 80%: pest or weed control at 200 ppm [1] | pest or weed control at 200 ppm [2] | pest or weed control at 12.5 ppm [3] | pest or weed control at 200 ppm [4] | pest or weed control at 200 ppm [5] | pest or weed control at 200 ppm [6]

Cc1cc(C2=CC(c3cc(Cl)cc(Cl)c3)(C(F)(F)F)OC2)ccc1C(=O)NCC(F)F (stereo not drawn) [Compound A29]
≥ 80%: pest or weed control at 200 ppm [1] | pest or weed control at 200 ppm [2] | pest or weed control at 200 ppm [4] | pest or weed control at 200 ppm [5] | pest or weed control at 200 ppm [6] | pest or weed control at 200 ppm [7]

Cc1cc(C2=CC(c3cc(Cl)cc(Cl)c3)(C(F)(F)F)OC2)ccc1C(=O)NC1C[S+]([O-])C1 (stereo not drawn) [Compound A77]
≥ 80%: pest or weed control at 12.5 ppm [3] | pest or weed control at 200 ppm [7]

Cc1cc(C2=CC(c3cc(Cl)cc(Cl)c3)(C(F)(F)F)OC2)ccc1C(=O)NCCC1CS(=O)(=O)C1 (stereo not drawn) [Compound A83]
≥ 80%: pest or weed control at 200 ppm [1] | pest or weed control at 200 ppm [2] | pest or weed control at 12.5 ppm [3] | pest or weed control at 200 ppm [4] | pest or weed control at 200 ppm [5] | pest or weed control at 200 ppm [6]

CO/N=C/NC(=O)c1ccc(C2=CC(c3cc(Cl)cc(Cl)c3)(C(F)(F)F)OC2)cc1C (stereo not drawn) [Compound A86, (E)-4-[5-(3,5-Dichlorophenyl)-5-trifluoromethyl-2,5-dihydro-furan-3-yl]-N-[(methoxyimino)methyl]-2-methylbenzamide]
≥ 80%: pest or weed control at 200 ppm [1] | pest or weed control at 200 ppm [2] | pest or weed control at 200 ppm [4] | pest or weed control at 200 ppm [5] | pest or weed control at 200 ppm [6] | pest or weed control at 200 ppm [7]

Cc1cc(C2=CC(c3cc(Cl)cc(Cl)c3)(C(F)(F)F)OC2)ccc1C(=O)NCCC(F)(F)F (stereo not drawn) [Compound D6]
≥ 80%: pest or weed control at 12.5 ppm [3]

CCC(C)NC(=O)c1ccc(C2=CC(c3cc(Cl)cc(Cl)c3)(C(F)(F)F)OC2)cc1C (stereo not drawn) [Compound D7]
≥ 80%: pest or weed control at 12.5 ppm [3]

Cc1cc(C2=CC(c3cc(Cl)cc(Cl)c3)(C(F)(F)F)OC2)ccc1C(=O)NC(C)c1ccccc1 (stereo not drawn) [Compound D11]
≥ 80%: pest or weed control at 200 ppm [2] | pest or weed control at 12.5 ppm [3] | pest or weed control at 200 ppm [7]

COc1ccc(CNC(=O)c2ccc(C3=CC(c4cc(Cl)cc(Cl)c4)(C(F)(F)F)OC3)cc2C)cc1 (stereo not drawn) [Compound D12]
≥ 80%: pest or weed control at 200 ppm [2] | pest or weed control at 12.5 ppm [3] | pest or weed control at 200 ppm [7]

Cc1cc(C2=CC(c3cc(Cl)cc(Cl)c3)(C(F)(F)F)OC2)ccc1C(=O)NCc1ccc(Cl)nc1 (stereo not drawn) [Compound D13]
≥ 80%: pest or weed control at 200 ppm [2] | pest or weed control at 12.5 ppm [3]

Cc1cc(C2=CC(c3cc(Cl)cc(Cl)c3)(C(F)(F)F)OC2)ccc1C(=O)Nc1cccc(F)c1 (stereo not drawn) [Compound D14]
≥ 80%: pest or weed control at 200 ppm [2] | pest or weed control at 12.5 ppm [3] | pest or weed control at 200 ppm [6]

Cc1cc(NC(=O)c2ccc(C3=CC(c4cc(Cl)cc(Cl)c4)(C(F)(F)F)OC3)cc2C)n(C)n1 (stereo not drawn) [Compound D16]
≥ 80%: pest or weed control at 200 ppm [2] | pest or weed control at 12.5 ppm [3] | pest or weed control at 200 ppm [7]

Cc1csc(NC(=O)c2ccc(C3=CC(c4cc(Cl)cc(Cl)c4)(C(F)(F)F)OC3)cc2C)n1 (stereo not drawn) [Compound D17]
≥ 80%: pest or weed control at 200 ppm [2] | pest or weed control at 12.5 ppm [3]

Cc1cc(C2=CC(c3cc(Cl)cc(Cl)c3)(C(F)(F)F)OC2)ccc1C(=O)NC1(C)CSC1 (stereo not drawn) [Compound D18]
≥ 80%: pest or weed control at 200 ppm [2] | pest or weed control at 12.5 ppm [3] | pest or weed control at 200 ppm [7]

CSCC(C)(C)NC(=O)c1ccc(C2=CC(c3cc(Cl)cc(Cl)c3)(C(F)(F)F)OC2)cc1C (stereo not drawn) [Compound D19]
≥ 80%: pest or weed control at 200 ppm [1] | pest or weed control at 200 ppm [2] | pest or weed control at 12.5 ppm [3] | pest or weed control at 200 ppm [4] | pest or weed control at 200 ppm [5] | pest or weed control at 200 ppm [6]

Cc1cc(C2=CC(c3cc(Cl)cc(Cl)c3)(C(F)(F)F)OC2)ccc1C(=O)NC1CCC1 (stereo not drawn) [Compound D23]
≥ 80%: pest or weed control at 200 ppm [1] | pest or weed control at 200 ppm [2] | pest or weed control at 12.5 ppm [3] | pest or weed control at 200 ppm [7]
